This is an account of results in US8772481B2, “Aza- and diaza-phthalazine compounds as P38 map kinase modulators and methods of use thereof” (Amgen Inc., priority 2008, dated 2014).

In one assay the target is human p38α (Homo sapiens (Human), UniProt Q16539). The assay is described as follows: Purified and activated recombinant human p38α HTRF assay. It counts as biochemical. The note with it: 50 μM ATP, read-out: p38a IC50. As for the experimental part:
Purified and Activated Recombinant Human p38α Assay
Kinase reaction buffer for p38α HTRF assays consists of 50 mM Tris-pH 7.5, 5 mM MgCl2, 0.1 mg/mL BSA, 100 μM Na3VO4 and 0.5 mM DTT.
HTRF detection buffer contains 100 mM HEPES-pH 7.5, 100 mM NaCl, 0.1% BSA, 0.05% Tween-20, and 10 mM EDTA.
Serial Dilution of Compounds:
Compounds were dissolved in 100% DMSO and serially diluted (3 fold, 10 point) in a polypropylene 96-well microtiter plate (drug plate). The final starting concentration of compounds in the p38α enzymatic assays was 1 μM. Columns 6 and 12 (HI controls and LO controls respectively) in the drug plate were reserved as controls and contained only DMSO.
The p38α kinase reactions were carried out in a polypropylene 96-well black round bottom assay plate in total volume of 30 μL kinase reaction buffer. Appropriate concentration of purified and activated enzyme (recombinant human) was mixed with indicated concentration of ATP and 100 nM GST-ATF2-Avitag, in the presence or absence (HI control) of Compound. See table below for actual concentrations. In the absence of substrate, the background was measured as LO control. The reaction was allowed to incubate for 1 hour at RT.
Assay Reagent Concentrations:
The final reagent concentrations were 1 nM p38α and 50 μM ATP.
After 60 minutes incubation at room temperature, the assay plate was read in a Discovery Plate Reader. The wells were excited with coherent 320 nm light and the ratio of delayed ([…] post excitation) emissions at […] (native europium fluorescence) and 665 nm (europium fluorescence transferred to allophycocyanin—an index of substrate phosphorylation) was determined (Park et al, 1999).
The proportion of substrate phosphorylated in the kinase reaction in the presence of compound compared with that phosphorylated in the presence of DMSO vehicle alone (HI control) was calculated using the formula: % control (POC)=(compound−average LO)/(average HI−average LO)*100. Data (consisting of POC and inhibitor concentration in μM) was fitted to a 4-parameter equation (y=A+((B−A)/(1+((x/C)^D))), where A is the minimum y (POC) value, B is the maximum y (POC), C is the x (compound concentration) at the point of inflection and D is the slope factor, using a Levenburg-Marquardt non-linear regression algorithm.
The inhibition constant (Ki) of the inhibitor was estimated from the IC50 (compound concentration at the point of inflection C) using the Cheng-Prussof equation: Ki=IC50/(1+S/Km), where S is the ATP substrate concentration, and Km is the Michaelis constant for ATP as determined experimentally. All results were expressed as the mean±the standard error of the mean. Data acquisition and non-linear regression algorithms were performed using Activity Base v5.2 and XL-fit software v4.1 respectively. All data was archived using Activity Base v5.2 software.
A general note: In TR-FRET formats the signal depends on donor and acceptor labels being close together.

Assay [1] concerns TNF-α induced IL-8 in human whole blood. The experiment in a line: Inhibition of TNF-α induced IL-8 in 50% human whole blood. It counts as cell-based. The note with it: 1 nM TNF-α, secreted IL-8, read-out: WB TNF/IL8 IC50. As for the experimental part: Inhibition of TNF-α Induced IL-8 in 50% Human Whole Blood
Test compounds were evaluated in vitro for the ability to inhibit the production of secreted IL-8 by whole blood activated with TNF-α. Fresh human whole blood was obtained from healthy, non-medicated volunteers in sodium heparin tubes.
Compound Dilution—Assay Procedure
Test compounds are serially diluted 1:3 in DMSO and then diluted 1:250 into R10 (RPMI 1640, 10% human serum AB, 1× pen/strep/glutamine) to the 4× working concentration to be used in the assay. 100 ul heparinized whole blood is plated into wells of 96 well flat bottom plates. 50 ul of either 4× compound or DMSO control (Final DMSO concentration is 0.1%) are added to the appropriate wells. Plates are incubated for 1 hour at 37 degrees Celsius. 50 ul of 4×TNF-α (4 nM TNF-α, for a final concentration of 1 nM) or control (media alone) is added to the appropriate wells (Total volume=200 ul). Plates are incubated overnight (16-18 hours). 100 ul of supernatant is collected and stored in 96-well round bottom polypropylene plates at −80 degrees Celsius or assayed immediately for IL-8.
Cytokines are measured on antibody (Ab) sandwich ECL based 96-well detection plates. 20 ul of supernatant are added to plate and plate is sealed and shaken at RT for 1 hour. 130 ul of detection Ab cocktail is added and plates are sealed and shaken for 1 hour in the dark at RT. Plates are read on MSD Sector HTS instrument. Data are analyzed and IC50 values generated using Activity Base and Xl-fit programs.

Sequence of human p38α (Q16539 whole entry): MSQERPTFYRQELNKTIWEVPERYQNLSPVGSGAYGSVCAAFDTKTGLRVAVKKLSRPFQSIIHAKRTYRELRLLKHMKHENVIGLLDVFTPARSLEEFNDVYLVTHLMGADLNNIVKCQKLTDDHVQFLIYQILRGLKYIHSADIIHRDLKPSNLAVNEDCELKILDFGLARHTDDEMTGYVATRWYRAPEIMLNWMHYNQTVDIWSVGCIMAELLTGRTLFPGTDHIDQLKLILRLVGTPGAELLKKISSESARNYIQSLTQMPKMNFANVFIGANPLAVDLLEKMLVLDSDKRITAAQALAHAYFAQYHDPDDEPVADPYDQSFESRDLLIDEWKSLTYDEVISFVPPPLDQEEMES

In the case of `Cc1cc(F)ccc1Oc1ccc2c(-c3cc(C(N)=O)ccc3C)nncc2n1` [Example 23, 3-(2-(4-fluoro-2-methylphenoxy)pyrido[2,3-d]pyridazin-5-yl)-4-methylbenzamide], the IC50 on human p38α was found to be 417 nM; in assay [1] it was 1030 nM.
Turning to “N-(2,4-difluorophenyl)-5-(3,5-dimethyl-1H-pyrazol-4-yl)pyrido[2,3-d]pyridazin-2-amine [Example 2]”, the IC50 on human p38α came to 1.6 nM; in assay [1], 1.8 nM.
The matching figures for `Fc1ccc(Nc2ccc3c(N4CCOCC4)nncc3n2)c(F)c1` [Example 3, N-(2,4-difluorophenyl)-5-(4-morpholinyl)pyrido[2,3-d]pyridazin-2-amine]: 4 nM and 7.6 nM.
Take `Fc1ccc(Nc2ccc3c(-c4ccc(F)cc4F)nncc3n2)c(F)c1` [Example 10, N,5-bis(2,4-difluorophenyl)pyrido[2,3-d]pyridazin-2-amine]: the results for the IC50 (on human p38α; in assay [1]) were 0.3 nM and 2.1 nM, respectively.
The matching figures for `Cc1ccc(C(N)=O)cc1-c1nncc2nc(Oc3ccc(F)cc3F)ccc12` [Example 5, 3-(2-(2,4-difluorophenoxy)pyrido[2,3-d]pyridazin-5-yl)-4-methylbenzamide]: 0.3 nM and 1 nM.
Take `Cn1cc(-c2nncc3nc(Nc4ccc(F)cc4F)ccc23)cn1` [Example 12, N-(2,4-difluorophenyl)-5-(1-methyl-1H-pyrazol-4-yl)pyrido[2,3-d]pyridazin-2-amine]: the IC50 was found to be 5.6 nM at human p38α and 13 nM in assay [1].
As for `Cc1ccccc1-c1nncc2nc(Oc3ccc(F)cc3F)ccc12` [Example 16, 2-(2,4-difluorophenoxy)-5-(2-methylphenyl)pyrido[2,3-d]pyridazine], the figures for the IC50 (at human p38α; in assay [1]) were 0.2 nM and 2.3 nM, respectively.
The matching figures for `Cc1cc(S(C)(=O)=O)ccc1-c1nncc2nc(Nc3ccc(F)cc3)ccc12` [Example 9, N-(4-fluorophenyl)-5-(2-methyl-4-(methylsulfonyl)phenyl)pyrido[2,3-d]pyridazin-2-amine]: 0.9 nM and 9 nM.
For `Cc1ccccc1-c1nncc2nc(Nc3ccc(F)cc3F)ccc12` [Example 6, N-(2,4-difluorophenyl)-5-(2-methylphenyl)pyrido[2,3-d]pyridazin-2-amine], the IC50 on human p38α amounted to 0.5 nM; in assay [1], 1.1 nM.
The matching figures for `Cc1ccc(C(N)=O)cc1-c1nncc2nc(Oc3ccc(F)cc3)ccc12` [Example 20, 3-(2-(4-fluorophenoxy)pyrido[2,3-d]pyridazin-5-yl)-4-methylbenzamide]: 1.2 nM and 3.1 nM.
As to `Cc1cc(S(C)(=O)=O)ccc1-c1nncc2nc(Nc3ccc(F)cc3F)ccc12` [Example 7, N-(2,4-difluorophenyl)-5-(2-methyl-4-(methylsulfonyl)phenyl)pyrido[2,3-d]pyridazin-2-amine], the IC50 at human p38α was found to be 0.5 nM; in assay [1], 2.6 nM.
With `Fc1ccc(Nc2ccc3c(-c4cn[nH]c4)nncc3n2)c(F)c1` [Example 13, N-(2,4-difluorophenyl)-5-(1H-pyrazol-4-yl)pyrido[2,3-d]pyridazin-2-amine], the IC50 is 3.5 nM on human p38α and 2.3 nM in assay [1].
As for `Cc1n[nH]cc1-c1nncc2nc(Nc3ccc(F)cc3F)ccc12` [Example 14, N-(2,4-difluorophenyl)-5-(3-methyl-1H-pyrazol-4-yl)pyrido[2,3-d]pyridazin-2-amine], the IC50 on human p38α is 1.1 nM; in assay [1], 2.7 nM.
Take `Cc1ncccc1-c1nncc2nc(Nc3ccc(F)cc3F)ccc12` [Example 8, N-(2,4-difluorophenyl)-5-(2-methyl-3-pyridinyl)pyrido[2,3-d]pyridazin-2-amine]: the figures for the IC50 (at human p38α; in assay [1]) were 1.2 nM and 2.6 nM, respectively.
For the compound `Cc1cc(S(C)(=O)=O)ccc1-c1nncc2nc(Oc3ccc(F)cc3F)ccc12` [Example 17, 2-(2,4-difluorophenoxy)-5-(2-methyl-4-(methylsulfonyl)phenyl)pyrido[2,3-d]pyridazine], the IC50 at human p38α worked out at 0.7 nM; in assay [1], 12 nM.
The matching figures for `Cc1noc(C)c1-c1nncc2nc(Oc3ccc(F)cc3F)ccc12` [Example 21, 2-(2,4-difluorophenoxy)-5-(3,5-dimethyl-4-isoxazolyl)pyrido[2,3-d]pyridazine]: 6.5 nM and 43 nM.
On to `Cc1cc(F)ccc1Oc1ccc2c(-c3ccccc3C)nncc2n1` [Example 22, 2-(4-fluoro-2-methylphenoxy)-5-(2-methylphenyl)pyrido[2,3-d]pyridazine], for which the IC50 amounted to 168 nM on human p38α and 620 nM in assay [1].
For the compound `Cc1ccccc1-c1nncc2nc(Oc3ccc(F)cc3)ccc12` [Example 19, 2-(4-fluorophenoxy)-5-(2-methylphenyl)pyrido[2,3-d]pyridazine], the figures for the IC50 (at human p38α; in assay [1]) were 0.9 nM and 5.9 nM, respectively.
Turning to `Cc1noc(C)c1-c1nncc2nc(Nc3ccc(F)cc3F)ccc12` [Example 15, N-(2,4-difluorophenyl)-5-(3,5-dimethyl-4-isoxazolyl)pyrido[2,3-d]pyridazin-2-amine], the IC50 worked out at 7.1 nM at human p38α and 10 nM in assay [1].
Consider `O=C(c1cccc(-c2nncc3nc(Nc4ccc(F)cc4F)ccc23)c1)N1CCOCC1` [Example 11, N-(2,4-difluorophenyl)-5-(3-(4-morpholinylcarbonyl)phenyl)pyrido[2,3-d]pyridazin-2-amine], for which the IC50 at human p38α stood at 45 nM; in assay [1] it was 79 nM.
The corresponding values for `Fc1ccc(Oc2ccc3c(-c4cn[nH]c4)nncc3n2)c(F)c1` [Example 18, 2-(2,4-difluorophenoxy)-5-(1H-pyrazol-4-yl)pyrido[2,3-d]pyridazine] are 5.1 nM and 24 nM.
